The source of these data is patent US5958946A, “Modulation of hair growth” (priority 1998, dated 1999).

The structures appear in SMILES notation.

Assay [1] relates to androgen-stimulated hair growth of flank organs. In words: Golden Syrian hamster assay (flank organ hair mass). In kind it is in vivo. The conditions noted are these: topical, 10% dose, thirteen applications, vehicle A, B or C per compound; for Left(mg) (hair mass of the compound-treated flank organ): 10 μl once a day. From the text:
Male intact Golden Syrian hamsters are considered acceptable models for human beard hair growth and other androgen-stimulated hair growth in that they display oval shaped flank organs, one on each side, each about 8 mm. in major diameter, which grow thick black and coarse hair similar to human beard hair. These organs produce hair in response to androgens in the hamster. To evaluate the effectiveness of a composition in reducing androgen-stimulated hair growth, the flank organs of each of a group of hamsters are shaved. To one organ of each animal 10 μl. of composition vehicle alone once a day is applied, while to the other organ of each animal an equal amount of the composition (including the relevant compound or compounds). After thirteen applications (one application per day for five days a week), the flank organs are shaved and the amount of recovered hair (hair mass) from each is weighed. Percent-reduction of hair growth is calculated by subtracting the hair mass (mg) value of the test compound treated side from the hair mass value of the vehicle treated side; the delta value obtained is then divided by the hair mass value of the vehicle treated side, and the resultant number is multiplied by 100.
The above-described assay will be referred to herein as the "Golden Syrian hamster" assay. Preferred compositions provide a reduction in hair growth of at least about 30%, more preferably at least about 50%, and most preferably at least about 60% when tested in the Golden Syrian hamster assay.
A number of compositions containing compounds that induce or activate UGTs for which testosterone is a substrate were tested in the Golden Syrian hamster assay; the results are provided in Table I: […]

Assay [2] deals with glucuronidation of testosterone (UGTs). Description: Induction of testosterone glucuronide formation in flank organ homogenates. In kind it is biochemical, Golden Syrian hamster. The conditions noted are these: flank organ protein, [14C]-testosterone 125 μM, UDP-glucuronic acid 5 mM, 37° C., 60 minutes. How it is done:
An assay was performed to evaluate whether some of the compounds tested in the Golden Syrian Hamster assay caused an induction of testosterone glucuronide formation.
Flank organ homogenates were prepared by adding 4 flank organs into 2 mL of a buffer containing 25 mM Tris/50 mM sucrose, pH 7.4 and homogenized with a Polytron (Brinkman Instruments) while keeping the mixture on ice. The glucuronidation of testosterone was measured by incubating the 20 μl of the flank organ protein (1 mg/ml) with [^14 C]-testosterone testosterone 125 μM and UDP-glucuronic acid (5 mM) in the presence of buffer containing 0.5M Tris, pH 7.5 and 0.1M MgCl2. The total reaction mixture volume was 100 μl. Assay mixtures were incubated at 37° C. for 60 minutes, and reactions were stopped with the addition of 3.5 ml methylene chloride. An aqueous carrier (250 μl water) was added to each reaction mixture which was then shaken and centrifuged. The unmetabolized [^14 C]-testosterone remained in the organic phase whereas the testosterone glucuronide partitioned into the aqueous phase, and was quantitated by scintillation spectrometry.

The test system of assay [3] is flank organs. In words: Flank organ diameter by caliper after topical treatment. The conditions noted are these: for effect on flank organ diameter (in words): topical application; for % Decrease (flank organ diameter) / Decrease (mm) (flank organ diameter, treated vs vehicle) / Treated FO (mm) (flank organ diameter): topical treatment as in the hair mass assay. Type of assay: in vivo, Golden Syrian hamster. How it is done:
It was believed that the diversion of testosterone away from its biologically active species to a glucuronide or sulfonate conjugate would have effects on the flank organs of the Golden Syrian hamster since testosterone is known to regulate the existence of these unique organs. The diameter of flank organs were assessed using a caliper following topical treatment of the hamsters with ethoxyquin or 5,7-dihydroxy-4'-methoxyflavone as described in the hair mass assay section.

With `O=C1CC(c2ccccc2)Oc2ccccc21` (centres unmarked) [flavanone], in assay [1], the “Left(mg) (hair mass of the compound-treated flank organ)” value (from here on “Left(mg)”) is 1.91 ± .22 mg and the “% Inhibition (percent reduction of hair growth vs vehicle-treated side)” value was 17 ± 10%.
As to `CCC1(c2ccccc2)C(=O)NC(=O)NC1=O` [phenobarbital, reference compound], the “% Induction (testosterone glucuronide formation)” value (from here on “% Induction”) in assay [2] is on record as 113%. Further, in assay [1], the “Left(mg)” value is given as 0.89 ± .16 mg and the “% Inhibition (percent reduction of hair growth vs vehicle-treated side)” value is listed as 51 ± 11%.
For `COc1ccc(O)c(C(C)(C)C)c1` [butylhydroxyanisole], in that order: 178%, 0.92 ± .24 mg and 61 ± 9%.
In the case of `CCOc1ccc2c(c1)C(C)=CC(C)(C)N2` [ethoxyquin], in assay [3], the “effect on flank organ diameter (in words)” value is listed as “decrease in flank organ diameter”; the “% Decrease (flank organ diameter)” value is reported as 19 ± 4%; the “Decrease (mm) (flank organ diameter, treated vs vehicle)” value was 1.65 ± .37 mm; the “Treated FO (mm) (flank organ diameter)” value is 7.18 ± .26 mm. In addition, the “% Induction” value in assay [2] came to 214%. Besides, in assay [1], the “Left(mg)” value was 0.55 ± .16 mg and the “% Inhibition (percent reduction of hair growth vs vehicle-treated side)” value was 75 ± 7%.
Regarding `O=C1C[C@@H](c2ccc(O)cc2)Oc2cc(O)cc(O)c21` [naringenin], in assay [1], the “Left(mg)” value was 1.42 ± .18 mg and the “% Inhibition (percent reduction of hair growth vs vehicle-treated side)” value is 40 ± 8%.
For the molecule `COc1ccc(-c2cc(=O)c3c(O)cc(O)cc3o2)cc1` [5,7-dihydroxy-4'-methoxyflavone], in assay [3], the “effect on flank organ diameter (in words)” value is “decrease in flank organ diameter”; the “% Decrease (flank organ diameter)” value is 12 ± 5%; the “Decrease (mm) (flank organ diameter, treated vs vehicle)” value is 1.04 ± .46 mm; the “Treated FO (mm) (flank organ diameter)” value is recorded as 8.04 ± .29 mm. Moreover, the “% Induction” value in assay [2] was 120%. In assay [1], the “Left(mg)” value is 1.00 ± .22 mg and the “% Inhibition (percent reduction of hair growth vs vehicle-treated side)” value amounted to 62 ± 9%.
Turning to `Cc1cc(C(C)(C)C)c(O)c(C(C)(C)C)c1` [butylhydroxytoluene], in assay [1], the “Left(mg)” value is 1.74 ± .38 mg and the “% Inhibition (percent reduction of hair growth vs vehicle-treated side)” value was 22 ± 18%.
